Source: patent publication US10913738B2 (BRISTOL-MYERS SQUIBB COMPANY, priority 2017, dated 2021)
Like-named read-outs stand apart in the source and are kept apart here.

Columns and labels:
[1] = target: T1, His-GST-TVMV-hRIPK1(1-324) (Homo sapiens, UniProt Q13546); assay: RIPK1 HTRF Binding Assay
T1 construct: The coding region of human RIPK1(1-324) flanked by NdeI site at 5′ end; made in house; host or cells: Spodoptera frugiperda (Sf9) insect cells, baculovirus
T1 sequence (Q13546 1-324): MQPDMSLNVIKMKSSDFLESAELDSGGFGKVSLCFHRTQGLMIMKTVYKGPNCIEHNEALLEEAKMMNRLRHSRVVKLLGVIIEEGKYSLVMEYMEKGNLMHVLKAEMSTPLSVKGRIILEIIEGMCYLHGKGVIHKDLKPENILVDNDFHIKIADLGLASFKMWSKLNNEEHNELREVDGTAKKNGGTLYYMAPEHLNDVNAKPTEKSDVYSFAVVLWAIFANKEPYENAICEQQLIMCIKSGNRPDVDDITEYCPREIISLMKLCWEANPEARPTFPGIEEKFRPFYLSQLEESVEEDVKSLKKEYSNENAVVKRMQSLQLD
Description: The plate was incubated at rt for 1 h.
Cloning and Baculovirus Expression of RIPK1 Construct
Baculovirus was generated for the construct using the Bac-to-Bac baculovirus expression system (Invitrogen) according to the manufacturer's protocol. Briefly, recombinant bacmid was isolated from transformed DH10Bac E. coli competent cells (Invitrogen) and used to transfect Spodoptera frugiperda (Sf9) insect cells (Invitrogen). Baculovirus was harvested 72 hours post transfection and a virus stock was prepared by infecting fresh Sf9 cells at a 1/1000 (v/v) ratio for 66 hours.
The production was carried out either at a 10 L scale in a 22 L cellbag (GE Healthcare Bioscience, Pittsburgh, Pa.) or at a 20 L scale in a 50 L cellbag using WAVE-Bioreactor System 20/50 (GE Healthcare Bioscience). The infected cells were harvested by centrifugation at 2000 rpm for 20 min at 4° C. in a SORVALL® RC12BP centrifuge. The cell pellets was stored at −70° C. before protein was purified.
RIPK1 containing cell paste was resuspended in 50 mM Tris pH 7.5, 150 mM NaCl, 10 mM imidazole, 5% glycerol, 5 mM MgSO4, 1 mM TCEP, 25 U/ml Benzonase, and Complete Protease Inhibitor tablets (1/50 ml, Roche Diagnostics, Indianapolis, Ind.). […] The suspension was clarified by centrifugation at 136,000×g for 40 min, at 4° C. The lysate was decanted from the pellet and passed through a 5 ml NiNTA Superflow cartridge (Qiagen, Valencia, Calif.) using an AKTA Pure (GE Healthcare). Column was eluted with 10 CV linear gradient into 50 mM Tris 7.5, 150 mM NaCl, 500 mM imidazole, 5% glycerol, 1 mM TCEP. Peak fractions were pooled and loaded directly onto 5 ml GSTrap 4B column (GE Healthcare). Column was washed with 50 mM Tris 7.0, 150 mM NaCl, 5% glycerol, 1 mM DTT and eluted in 10 CV linear gradient into 50 mM Tris 8.0, 150 mM NaCl, 20 mM reduced glutathione, 5% glycerol, 1 mM DTT. Fractions identified by SDS-PAGE as containing RIPK1 were pooled and concentrated using 30 kDa MWCO spin concentrators (Amicon Ultra-15, Millipore, Billerica, Mass.) and loaded onto a HiLoad 26/600 Superdex 200 column (GE Healthcare) equilibrated in 25 mM Tris 7.5, 150 mM NaCl, 2 mM TCEP, 5% glycerol.
Protein was aliquoted and stored at −80° C.

[2] = tested on: MLKL phosphorylation in HT29-L23 human colorectal adenocarcinoma cells; assay: MLKL Phosphorylation High-Content Assay; type: cell-based
Description: MLKL Phosphorylation High-Content Assay
Following six hours incubation at 37° C. […] MLKL phosporylation was detected using anti-MLKL (phospho S358) antibody (Abcam #ab187091) (1:1000 dilution in Blocking Buffer [PBS supplemented with 0.1% BSA]) with overnight incubation at 4° C. […] Following another three cycles of washes in PBS, the microplates were sealed, and cellular images were acquired in the Cellomics ArrayScan VTI high-content imager equipped with an X1 camera. […] The image sets were analyzed using the Compartmental Analysis Bioapplication software (Cellomics). The level of MLKL phosphorylation was quantified as MEAN CircRingAvgIntenRatio. […] The data were fitted using the 4-parameter logistic equation to calculate the IC50 and Ymax values.

[3] = x marks IC50 class <20 nM, read-out: RIPK1 HTRF binding <20 nM
[4] = x marks IC50 class >200 nM, read-out: RIPK1 HTRF binding >200 nM
[5] = Homo sapiens, x marks IC50 class >200 nM, read-out: pMLKL cell activity >200 nM
[6] = x marks IC50 class 20-200 nM, read-out: RIPK1 HTRF binding 20-200 nM
[7] = Homo sapiens, x marks IC50 class 20-200 nM, read-out: pMLKL cell activity 20-200 nM
[8] = Homo sapiens, x marks IC50 class <20 nM, read-out: pMLKL cell activity <20 nM

5-(2-amino-[1,2,4]triazolo[1,5-a]pyridin-7-yl)-6-chloro-N-(2-flouro-5-(trifluoromethoxy)benzyl)nicotinamide [Example 373]
IC50 [1, 3]: < 20 nM | IC50 ([2]; x marks IC50 class >200 nM, read-out: pMLKL cell activity >200 nM): > 200 nM

COc1ncc(-c2ccn3nc(N)nc3c2)cc1C(=O)N1CCCC(C(O)c2ccc(F)cc2)C1 (mixture of isomers) [Example 422, (5-(2-amino-[1,2,4]triazolo[1,5-a]pyridin-7-yl)-2-methoxypyridin-3-yl)(3-((4-fluorophenyl)(hydroxy)methyl)piperidin-1-yl)methanone]
IC50 [1, 4]: > 200 nM | IC50 [2, 5]: > 200 nM

COc1ncc(-c2ccn3nc(N)nc3c2)cc1C(=O)NC(C)c1cccc(OC(F)(F)F)c1 (single isomer, unassigned) [Example 36-1, 5-{2-Amino-[1,2,4]triazolo[1,5-a]pyridin-7-yl}-2-methoxy-N-{1-[3-(trifluoromethoxy)phenyl]ethyl}pyridine-3-carboxamide]
IC50 [1, 6]: 20 to 200 nM | IC50 [2, 7]: 20 to 200 nM

COc1ncc(-c2ccn3nc(N)nc3c2)cc1C(=O)NC(C)c1cccc(OC(F)(F)F)c1 (single isomer, unassigned) [Example 36-2, 5-{2-Amino-[1,2,4]triazolo[1,5-a]pyridin-7-yl}-2-methoxy-N-{1-[3-(trifluoromethoxy)phenyl]ethyl}pyridine-3-carboxamide]
IC50 [1, 4]: > 200 nM | IC50 [2, 5]: > 200 nM

COc1ncc(-c2ccn3nc(N)nc3c2)cc1C(=O)NC(C)c1ccccc1OC(F)(F)F (single isomer, unassigned) [Example 38-2, 5-{2-Amino-[1,2,4]triazolo[1,5-a]pyridin-7-yl}-2-methoxy-N-{1-[2-(trifluoromethoxy)phenyl]ethyl}pyridine-3-carboxamide]
IC50 [1, 4]: > 200 nM | IC50 [2, 5]: > 200 nM

COc1ncc(-c2ccn3nc(N)nc3c2)cc1C(=O)NCCC(O)c1ccc(F)cc1 (single isomer, unassigned) [Example 71-1, 5-(2-Amino-[1,2,4]triazolo[1,5-a]pyridin-7-yl)-N-(3-(4-fluorophenyl)-3-hydroxypropyl)-2-methoxynicotinamide]
IC50 [1, 6]: 20 to 200 nM | IC50 [2, 7]: 20 to 200 nM

COc1ncc(-c2ccn3nc(N)nc3c2)cc1C(=O)Nc1cnn(C(C)c2ccc(F)cc2)c1 (single isomer, unassigned) [Example 76-1]
IC50 [1, 3]: < 20 nM | IC50 [2, 8]: < 20 nM

COc1ncc(-c2ccn3nc(N)nc3c2)cc1C(=O)Nc1cnn(C(C)c2ccc(F)cc2)c1 (single isomer, unassigned) [Example 76-2]
IC50 [1, 3]: < 20 nM | IC50 [2, 7]: 20 to 200 nM

COc1ncc(-c2ccn3nc(N)nc3c2)cc1C(=O)NC(C)c1cc(OC(F)(F)F)ccc1F (single isomer, unassigned) [Example 89-1, 5-{2-amino-[1,2,4]triazolo[1,5-a]pyridin-7-yl}-N-{1-[2-fluoro-5-(trifluoromethoxy)phenyl]ethyl}-2-methoxypyridine-3-carboxamide]
IC50 [1, 6]: 20 to 200 nM | IC50 [2, 7]: 20 to 200 nM

[2H]C([2H])([2H])Oc1ncc(-c2ccn3nc(N)nc3c2)cc1C(=O)NC(C)c1ccccc1OC(F)(F)F (single isomer, unassigned) [Example 95-1, 5-{2-amino-[1,2,4]triazolo[1,5-a]pyridin-7-yl}-2-(deutero)methoxy-N-{1-[2-(trifluoromethoxy)phenyl]ethyl}pyridine-3-carboxamide]
IC50 [1, 4]: > 200 nM | IC50 [2, 5]: > 200 nM

[2H]C([2H])([2H])Oc1ncc(-c2ccn3nc(N)nc3c2)cc1C(=O)NC(C)c1ccccc1OC(F)(F)F (single isomer, unassigned) [Example 95-2, 5-{2-amino-[1,2,4]triazolo[1,5-a]pyridin-7-yl}-2-(deutero)methoxy-N-{1-[2-(trifluoromethoxy)phenyl]ethyl}pyridine-3-carboxamide]
IC50 [1, 3]: < 20 nM | IC50 [2, 8]: < 20 nM

[2H]C([2H])([2H])Oc1nc(C)c(-c2ccn3nc(N)nc3c2)cc1C(=O)NC(C)c1cc(OC(F)(F)F)ccc1F (single isomer, unassigned) [Example 97-1, 5-{2-amino-[1,2,4]triazolo[1,5-a]pyridin-7-yl}-N-{1-[2-fluoro-5-(trifluoromethoxy)phenyl]ethyl}-2-(deutero)methoxy-6-methylpyridine-3-carboxamide]
IC50 [1, 6]: 20 to 200 nM | IC50 [2, 7]: 20 to 200 nM

[2H]C([2H])([2H])Oc1nc(C)c(-c2ccn3nc(N)nc3c2)cc1C(=O)NC(C)c1ccccc1OC(F)(F)F (single isomer, unassigned) [Example 98-1, 5-{2-amino-[1,2,4]triazolo[1,5-a]pyridin-7-yl}-2-(deutero)methoxy-6-methyl-N-{1-[2-(trifluoromethoxy)phenyl]ethyl}pyridine-3-carboxamide]
IC50 [1, 4]: > 200 nM | IC50 [2, 5]: > 200 nM

[2H]C([2H])([2H])Oc1nc(C)c(-c2ccn3nc(N)nc3c2)cc1C(=O)NC(C)c1ccccc1OC(F)(F)F (single isomer, unassigned) [Example 98-2, 5-{2-amino-[1,2,4]triazolo[1,5-a]pyridin-7-yl}-2-(deutero)methoxy-6-methyl-N-{1-[2-(trifluoromethoxy)phenyl]ethyl}pyridine-3-carboxamide]
IC50 [1, 3]: < 20 nM | IC50 [2, 8]: < 20 nM

Cc1ncc(-c2ccn3nc(N)nc3c2)cc1C(=O)NC(C)c1cc(C(F)(F)F)ccc1F (single isomer, unassigned) [Example 99-1, 5-{2-amino-[1,2,4]triazolo[1,5-a]pyridin-7-yl}-N-{1-[2-fluoro-5-(trifluoromethyl)phenyl]ethyl}-2-methylpyridine-3-carboxamide]
IC50 [1, 6]: 20 to 200 nM | IC50 [2, 7]: 20 to 200 nM

COc1ncc(-c2ccn3nc(N)nc3c2)cc1C(=O)NCc1cccc(F)c1C(=O)N1CCC(F)(F)C1 [Example 378, 5-(2-amino-[1,2,4]triazolo[1,5-a]pyridin-7-yl)-N-(2-(3,3-difluoropyrrolidine-1-carbonyl)-3-fluorobenzyl)-2-methoxynicotinamide]
IC50 [2, 7]: 20 to 200 nM

COc1nc(C)c(-c2ccn3nc(N)nc3c2)cc1C(=O)NCc1cccc(F)c1C(=O)N1CCC(F)(F)C1 [Example 382, 5-(2-amino-[1,2,4]triazolo[1,5-a]pyridin-7-yl)-N-(2-(3,3-difluoropyrrolidine-1-carbonyl)-3-fluorobenzyl)-2-methoxy-6-methlnicotinamide]
IC50 ([2]; x marks IC50 class <20 nM, read-out: pMLKL cell activity <20 nM): < 20 nM

COc1ncc(-c2ccn3nc(N)nc3c2)cc1NC(=O)c1cnn(Cc2ccccc2)c1 [Example 413, N-(5-(2-amino-[1,2,4]triazolo[1,5-a]pyridin-7-yl)-2-methoxypyridin-3-yl)-1-benzyl-1H-pyrazole-4-carboxamide]
IC50 [2, 5]: > 200 nM

COc1ncc(-c2ccc3nc(N)nn3c2)cc1NC(=O)Cc1cc(OC(F)(F)F)ccc1F [Example 418, N-(5-(2-amino-[1,2,4]triazolo[1,5-a]pyridin-6-yl)-2-methoxypyridin-3-yl)-2-(2-fluoro-5-(trifluoromethoxy)phenyl)acetamide]
IC50 [2, 7]: 20 to 200 nM
